Test results from US20140093884A1, “Process for Identifying Novel Anti-Inflammatory Molecules with Reduced Direct Transrepression of Genes Induced by Glucocorticoids” (UNIVERSITE DE STRASBOURG, priority 2011, published 2014).

Experiments:
[1] = system: TSLP; assay: TSLP transcript levels in mouse ear epidermis after topical treatment (Q-RT-PCR); format: in vivo; conditions: WT mice
Text: Mice. […] Real time PCR. Total RNA was reverse transcribed using hexamers, followed by Q-PCR, as reported (Li et al., 2005). The GC agonist fluocinolone acetonide (FA) was applied to ears of mice concomitantly treated with the “low-calcemic” Vitamin D3 (VitD3) analog MC903 (Calcipotriol; hereafter called MC) to trigger TSLP expression (Li et al., 2006). […] As expected, the expression of the GC-inducible GPX3 (glutathione peroxidase 3) gene which harbours a (+)GRE (Tuckermann et al., 1999) was enhanced by FA (FIG. 10) and inhibited by RU co-treatment, while FA or RU had no effect on MC-dependent expression of the CYP24A1 gene (a VitD3 target) (FIG. 10). […] Although the basal TSLP level was similar in vehicle-treated WT and GR^ep−/− mice, FA blocked MC-induced TSLP expression in WT, but not in GR^ep−/− mice (not shown).

[2] = system: GPX3 (glutathione peroxidase 3) gene, (+)GRE; assay: GPX3 transcript levels in mouse ear epidermis after topical treatment (Q-RT-PCR); format: in vivo; conditions: WT mice, ears, topical FA, FIG. 10
Text: (§1) Mice. […] Real time PCR. Total RNA was reverse transcribed using hexamers, followed by Q-PCR, as reported (Li et al., 2005). The GC agonist fluocinolone acetonide (FA) was applied to ears of mice concomitantly treated with the “low-calcemic” Vitamin D3 (VitD3) analog MC903 (Calcipotriol; hereafter called MC) to trigger TSLP expression (Li et al., 2006). […] As expected, the expression of the GC-inducible GPX3 (glutathione peroxidase 3) gene which harbours a (+)GRE (Tuckermann et al., 1999) was enhanced by FA (FIG. 10) and inhibited by RU co-treatment, while FA or RU had no effect on MC-dependent expression of the CYP24A1 gene (a VitD3 target) (FIG. 10).

[3] = system: CYP24A1 gene (a VitD3 target); assay: CYP24A1 transcript levels in mouse ear epidermis after topical treatment (Q-RT-PCR); format: in vivo; conditions: mouse ears, FIG. 10
Text: as §1

[4] = system: TSLP; assay: Nuclear run-on assay of TSLP expression; format: in vivo, mouse
Text: Nuclear run-on, EMSA, 3C and Luciferase assays. Nuclear Run-on and EMSA (Carey and Smale., 2001), 3C (Liu et al., 2005) and Luciferase assays (Promega kit) were as described. […] Although the basal TSLP level was similar in vehicle-treated WT and GR^ep−/− mice, FA blocked MC-induced TSLP expression in WT, but not in GR^ep−/− mice (not shown).

[5] = system: IR nGRE (pGL3(VDRE) IR1 nGRE luciferase reporter); assay: Luciferase reporter assay in A549 cells, pGL3(VDRE) IR nGRE plasmids; format: cell-based, human
Protocol: Luciferase reporter assay. A549 cells seeded on 24-well tissue culture plates overnight at 70% confluency were transfected with 100 ng pCMV β galactosidase, 200 ng pGL3 reporter plasmids and wherever indicated, with 600 ng pSG5 hVDR plasmid (Green et al., 1988) into each well and maintained in medium containing charcoal treated FCS. 24 hours post-transfection, medium was changed and different compounds were added to it for 6 hours. […] Luciferase assay was carried out as instructed (Promega). Normalized values are reported as the mean±SEM; each value originates from at least three individual transfections with assays performed in duplicate.
To investigate whether additional DNA elements could be required to generate a repressing activity, the TSLP IR1 nGRE was inserted upstream of an enhancerless SV40 early promoter located 5′ to the luciferase coding sequence of pGL3 vector, A VDRE separated from the IR1 nGRE by a 314 bp-long DNA segment devoid of any known transregulator binding site (not shown) was inserted to generate a luciferase-expressing reporter plasmid (pGL3(VDRE) IR1 nGRE, FIG. 4), which was transfected into A549 cells, followed by addition of VitD3 and/or FA.
To investigate whether the 1 bp spacer between the inverted repeated motifs of TSLP IR1 nGRE was critical for its repressing function, pGL3-based luciferase plasmids containing the VDRE and TSLP nGRE motifs spaced by 0 to 5 bases (IR0 to IR5 nGREs) were transfected into A549 cells.

[6] = system: (+)GRE (PGL3(VDRE) (+)GRE luciferase reporter); assay: Luciferase reporter assay in A549 cells, PGL3(VDRE) (+)GRE vector; format: cell-based, human; conditions: FA
Protocol: (§2) Luciferase reporter assay. A549 cells seeded on 24-well tissue culture plates overnight at 70% confluency were transfected with 100 ng pCMV β galactosidase, 200 ng pGL3 reporter plasmids and wherever indicated, with 600 ng pSG5 hVDR plasmid (Green et al., 1988) into each well and maintained in medium containing charcoal treated FCS. 24 hours post-transfection, medium was changed and different compounds were added to it for 6 hours. Final concentrations of the compounds are: FA, 500 nM; Dex or RU24858, 300 nM or 500 nM (wherever 300 nM Dex or RU was used, it is indicated in the figure, in all other cases, 500 nM concentration was used); active vitamin D3, 1 μM; IL-1β, 5 ng/ml; BAY 11-7082, 5 μM, JNK inhibitor II, 25 μM. Luciferase assay was carried out as instructed (Promega). Normalized values are reported as the mean±SEM; each value originates from at least three individual transfections with assays performed in duplicate. […]

[7] = system: VDRE reporter plasmid (IR nGRE element deleted); assay: Luciferase reporter assay in A549 cells, VDRE reporter without IR1 nGRE; format: cell-based, human; conditions: FA addition
Protocol: as §2

Which “MC-induced TSLP expression, effect of FA” value [1] does the source give for `CC1(C)O[C@@H]2C[C@H]3[C@@H]4C[C@H](F)C5=CC(=O)C=C[C@]5(C)[C@@]4(F)[C@@H](O)C[C@]3(C)[C@]2(C(=O)CO)O1` [FA, fluocinolone acetonide] here?
The value was “blocked”.

What about the “inhibition of basal TSLP RNA level” value ([1]; ears, topical FA) of the same compound?
The value was roughly 50%.

And the “MC-induced increase of TSLP RNA, effect of FA” value ([1]; ears, topical, MC903 co-treatment)?
The value was “fully blocked”.

What about the “expression of GPX3 gene” value [2] of the same compound?
The value was “enhanced”.

And the “effect on MC-dependent expression of the CYP24A1 gene” value [3]?
Its value is “no effect”.

What about the “nature of GR-mediated FA inhibition of TSLP expression” value [4] of the same compound?
The value was “transcriptional”.

And the “reporter genes containing the IR1 nGRE DBS of various genes” value ([5]; 6 hours, FIG. 13)?
The value was “induces repression”.

What about the “repressing activity with mutant IR1 nGRE to which recombinant GR does not bind” value ([5]; FA) of the same compound?
The value was “no FA-inducible repressing activity”.

What about the “basal and VDRE-mediated VitD3-induced luciferase expression in presence of IR1 nGRE” value ([5]; pGL3(VDRE) IR1 nGRE, FA addition, FIG. 11) of the same compound?
Its value is “decreased expression”.

What about the “change in basal and VitD3-induced luciferase activity for IR3, IR4 and IR5 nGREs” value ([5]; upon FA addition) of the same compound?
The value was “no significant change”.

And the “decrease in basal and VitD3-induced luciferase activity for IR1 and IR2 compared with IR0 nGRE” value ([5]; upon FA addition)?
The value was “stronger”.

What about the “luciferase expression when IR1 nGRE replaced by a (+)GRE” value [6] of the same compound?
Its value is “increase”.

What about the “luciferase expression in absence of IR1 nGRE” value [7] of the same compound?
Its value is “did not affect”.
